Data published in the NIST ThermoML archive (doi:10.1021/je034279l).

Tests used:
[1] = xn = mol fraction of the nth substance listed; conditions: 298.15 K; for surface tension liquid-gas: Pendant drop shape; for excess molar volume: 101 kPa, Liquid
[2] = 298.15 K; for surface tension liquid-gas: Pendant drop shape; for mass density: 101.33 kPa, Liquid

Cc1ccccc1C [1,2-dimethylbenzene] + COC(C)(C)C
[1]
Conditions	surface tension liquid-gas [mN/m]
x2 = 0.0997	27.9
x2 = 0.1996	26.62
x2 = 0.3012	25.28
x2 = 0.4008	24.14
x2 = 0.4997	23.12
x2 = 0.6012	22.17
x2 = 0.7002	21.3
x2 = 0.8	20.57
x2 = 0.8999	19.78

Cc1cccc(C)c1 [1,3-dimethylbenzene] + CC(C)OC(C)C
[1]
Conditions	excess molar volume [m3/mol]	surface tension liquid-gas [mN/m]
x2 = 0.0514	-1.35e-07	–
x2 = 0.1002	-2.42e-07	–
x2 = 0.1019	–	26.38
x2 = 0.1526	-3.55e-07	–
x2 = 0.1997	-4.41e-07	–
x2 = 0.2111	–	24.88
x2 = 0.2501	-5.2e-07	–
x2 = 0.3002	-5.79e-07	23.72
x2 = 0.3498	-6.37e-07	–
x2 = 0.3999	–	22.67
x2 = 0.4001	-6.7e-07	–
x2 = 0.4516	-7.11e-07	–
x2 = 0.4991	–	21.73
x2 = 0.5012	-7.15e-07	–
x2 = 0.5509	-7.18e-07	–
x2 = 0.6001	-6.92e-07	–
x2 = 0.6006	–	20.86
x2 = 0.65	-6.71e-07	–
x2 = 0.6944	-6.17e-07	–
x2 = 0.6994	–	19.91
x2 = 0.7498	-5.58e-07	–
x2 = 0.7998	–	19.02
x2 = 0.8005	-4.77e-07	–
x2 = 0.8506	-3.93e-07	–
x2 = 0.8981	–	18.12
x2 = 0.8998	-2.83e-07	–
x2 = 0.95	-1.64e-07	–

Cc1ccccc1C [1,2-dimethylbenzene] + CC(C)OC(C)C
[1]
Conditions	excess molar volume [m3/mol]	surface tension liquid-gas [mN/m]
x2 = 0.0506	-1.77e-07	–
x2 = 0.0997	-3.15e-07	–
x2 = 0.1022	–	27.21
x2 = 0.1501	-4.49e-07	–
x2 = 0.2003	-5.74e-07	–
x2 = 0.201	–	25.55
x2 = 0.2503	-6.91e-07	–
x2 = 0.3003	-7.82e-07	–
x2 = 0.3018	–	24.17
x2 = 0.35	-8.39e-07	–
x2 = 0.4004	-8.83e-07	–
x2 = 0.4037	–	23.01
x2 = 0.4497	-9.22e-07	–
x2 = 0.4997	–	22
x2 = 0.505	-9.36e-07	–
x2 = 0.5505	-9.48e-07	–
x2 = 0.5998	–	21.03
x2 = 0.6001	-9.1e-07	–
x2 = 0.6509	-8.82e-07	–
x2 = 0.7	-8.11e-07	–
x2 = 0.7013	–	20
x2 = 0.7502	-7.47e-07	–
x2 = 0.7987	–	19.15
x2 = 0.7999	-6.31e-07	–
x2 = 0.8502	-5.11e-07	–
x2 = 0.8987	–	18.08
x2 = 0.8997	-3.69e-07	–
x2 = 0.9493	-2.1e-07	–

COC(C)(C)C [2-methoxy-2-methylpropane] + Cc1ccc(C)cc1
[1]
Conditions	surface tension liquid-gas [mN/m]
x1 = 0.1008	26.85
x1 = 0.1998	25.81
x1 = 0.3012	24.78
x1 = 0.4026	23.84
x1 = 0.4997	22.96
x1 = 0.6004	22.08
x1 = 0.6993	21.24
x1 = 0.8	20.48
x1 = 0.9002	19.78

Cc1ccc(C)cc1 [1,4-dimethylbenzene]
[2]
Conditions	mass density [kg/m3]	surface tension liquid-gas [mN/m]
–	856.85	27.89

Cc1cccc(C)c1 [1,3-dimethylbenzene]
[2]
Conditions	mass density [kg/m3]	surface tension liquid-gas [mN/m]
–	859.78	28.36

CC(C)OC(C)C [diisopropyl ether] + Cc1ccc(C)cc1
[1]
Conditions	excess molar volume [m3/mol]	surface tension liquid-gas [mN/m]
x1 = 0.0527	-1.36e-07	–
x1 = 0.0988	–	26.3
x1 = 0.1016	-2.79e-07	–
x1 = 0.15	-3.98e-07	–
x1 = 0.2011	-5.1e-07	–
x1 = 0.2012	–	24.84
x1 = 0.2527	-5.88e-07	–
x1 = 0.2991	–	23.73
x1 = 0.3004	-6.58e-07	–
x1 = 0.3509	-7.3e-07	–
x1 = 0.4007	-7.61e-07	–
x1 = 0.4045	–	22.68
x1 = 0.4506	-7.85e-07	–
x1 = 0.5044	-8.02e-07	–
x1 = 0.5096	–	21.66
x1 = 0.5507	-7.95e-07	–
x1 = 0.6002	-7.87e-07	–
x1 = 0.603	–	20.76
x1 = 0.6498	-7.56e-07	–
x1 = 0.7	–	19.91
x1 = 0.7007	-7.02e-07	–
x1 = 0.7497	-6.25e-07	–
x1 = 0.7987	–	19.02
x1 = 0.7999	-5.37e-07	–
x1 = 0.8512	-4.32e-07	–
x1 = 0.898	–	18.18
x1 = 0.9	-3.18e-07	–
x1 = 0.9507	-1.78e-07	–

Cc1ccccc1C [1,2-dimethylbenzene]
[2]
Conditions	mass density [kg/m3]	surface tension liquid-gas [mN/m]
–	875.92	29.35

CC(C)OC(C)C [diisopropyl ether]
[2]
Conditions	mass density [kg/m3]	surface tension liquid-gas [mN/m]
–	718.38	17.31

Cc1cccc(C)c1 [1,3-dimethylbenzene] + COC(C)(C)C
[1]
Conditions	surface tension liquid-gas [mN/m]
x2 = 0.1019	27.13
x2 = 0.2019	26.05
x2 = 0.3028	24.98
x2 = 0.4014	23.99
x2 = 0.4996	23.01
x2 = 0.6006	22.08
x2 = 0.7009	21.26
x2 = 0.8001	20.49
x2 = 0.9004	19.76

COC(C)(C)C [2-methoxy-2-methylpropane]
[2]
Conditions	mass density [kg/m3]	surface tension liquid-gas [mN/m]
–	735.48	19.25
